Experiments:
naïve CD4+ T cells = experiment: Human regulatory T cell differentiation assay; type: cell-based; conditions: 3 mM, 6 days
Experimental: Peripheral blood mononuclear cells (PBMCs) from whole blood donated by health volunteers were separated by Ficoll-Paque gradient centrifugation and naïve CD4^+ T cells were subsequently isolated using magnet beads (EasySep™ Human Naïve CD4^+ T Cell Isolation Kit, Cambridge, Mass.). For regulatory T cell (Treg) differentiation assay, naïve CD4^+ T cells were cultured (1-10×10^4 cells) in CTS OpTmizer medium for 6 days and stimulated with 5 ng/ml TGF-β, 100 U/ml IL-2, and ImmunoCult™ Human […] T Cell Activator; Stemcell #10990) with/without our Compounds. Cell viability was determined using a viability dye (eBioscience Fixable Viability Dye eFluor 780: ThermoFisher 65-0865-14) at 1:500 dilution. The cells were gated for Treg, defined as Live, CD11c^−, CD14^−, CD19^−, CD8^−, CD4^+, CD3^+, CD25^+, FOXP3^+. Percent (%) Tregs were calculated as percentage of CD4^+, CD25^+, FOXP3^+ cells over total CD4^+ T cells. Statistical analysis was performed with GraphPad Prism Software Using One-Way ANOVA.

Mouse 3T3-L1 cells = experiment: Mouse adipocyte lipolysis assay; type: cell-based; conditions: Mus musculus, 3T3-L1; 3 mM, 24 hours; read-out: Lipolysis Free Fatty Acids % DMSO
Experimental: Once the cells became confluent, they were seeded into a tissue culture treated 96 well plate. […] After 14 days of differentiation, cells were treated with compounds of interest. After 24 hours post-treatment, the cell viability was assessed using CellTiter-Glo Luminescent Cell Viability Assay from Promega, and lipolysis was determined using Lipolysis Assay Kit from ZenBio.

Mouse myocyte = Mouse myocyte lipolysis assay; type: cell-based; conditions: Mus musculus; 3 mM; read-out: Free glycerol % DMSO
Experimental: Cells were obtained from ATCC and cultured in Dulbecco's Modified Eagle's medium (DMEM) containing 20% fetal bovine serum and 1% penicillin/streptomycin at 37° C. in an incubator with 5% CO2. Once the cells became confluent, they were seeded into a tissue culture treated 96 well plate. The next day, the medium containing DMEM with 2% equine serum was used to start differentiation. Once cells were fully differentiated, they were treated with indicated compounds.

[1] = Assay 1. Stability in Simulated Gastric Fluid (SGF); type: in vitro ADME; conditions: 1 μM, 37° C., SGF pH 1.6 with pepsin
Summary of the method: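 Acylated compounds at a final 1 μM (diluted from 1 mM DMSO stock) were incubated at 37 °C in SGF of pH 1.6 NaCl buffer with FaSSIF powder and 0.1 mg/mL pepsin. Aliquots were quenched with acetonitrile at T0 and regular intervals, and degradation rates were determined by LC/MS.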

[2] = Assay 2. Stability in Simulated Intestinal Fluid (SIF); type: in vitro ADME; conditions: 1 μM, 37° C., SIF pH 6.7 with pancreatin
Summary of the method: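 Acylated compounds at 1 μM (from 1 mM DMSO stock) in fresh SIF: FaSSIF with pancreatin in pH 6.7 phosphate buffer, agitated at 37 °C. Aliquots from T0 onward quenched with 1 volume acetonitrile; LC/MS gives degradation rates.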

C57BL/6 DIO mice = experiment: DIO animal model of NAFLD/NASH in young mice (Example 16); type: in vivo; design: OGTT: unit not given beside the values; conditions: for % Weight change: 12 weeks; for OGTT: Day 82, 2 g/kg glucose PO; for % Difference compared to ctrl: weight change vs HFD ctrl
Excerpt: Species (number, sex, age/weight): C57BL/6 DIO mice (120+10 spares, male, ˜18 weeks of age) from Jackson Laboratories, Stock #380050. Note: 18 week old DIO mice sent sent with a minimum body weight of 39 grams. Spare animals may be used to replace study animals, as required, euthanized after completion of dose administration or transferred to Testing Facility Docket 07-12.
Cage Side Observations (Animal Health Checks): Cage side animal's health checks will be performed at least once daily to check for general health, mortality and moribundity. Clinical Observations: Clinical observations will be performed per exception. Body Weights: Body weights for all animals will be recorded prior to Day 1 and at least twice weekly thereafter, including prior to necropsy ([…]).
Dose Administration: Dosing for Groups 3-8 will be provided ad libitum in the diet. Dosing for Groups 9 (Saline) and 10 (Semaglutide at 123.4 μg/kg) in a 5 mL/kg volume, will begin on Day 1, and be performed 3 times weekly for 12 weeks by SC administration. Residual Test Article: All residual high fat diets will be frozen at nominally −20° C., and at the end of the study, several pellets of the diets for groups 2-9 (in 50-ml conical tubes) will be shipped to Sponsor, and the rest will be discarded. Residual control diets (group 1) will be stored ambient, and at the end of the study, several pellets in a 50 mL conical tube will be shipped to Sponsor and the rest is discarded. Residual test material for Group 10 will be stored at nominally −70° C., and at the end of the study, an aliquot of test material will be shipped to Sponsor, and the rest will be discarded.
(§1) Oral Glucose Tolerance Test (oGTT) On Day 82 (+/−2 days) an oGTT will be performed. Following an approximate 4 hour fast, 2 g/kg glucose (50% Dextrose diluted in sterile water for injection to a concentration of 0.4 g/mL) will be administered at 5 mL/kg via oral gavage (PO). Blood will be collected pre-glucose challenge (t=0) and at t=15, 30, 60, 90, and 120 minutes following the glucose challenge. Whole blood glucose levels will be evaluated at all time points using a handheld glucometer and will be reported in the Data Submission. This will be scheduled on a Tuesday or Thursday to avoid Group 9/10 dosing days.
as §1, with “Submission.” for “Submission. This will be scheduled on a Tuesday or Thursday to avoid Group 9/10 dosing days.”

Male DIO mice = experiment: In vivo evaluation for glucose disposal and lipidemia in DIO mice (Example 11); conditions: for Fasting blood glucose levels (time 0 from OGTT): 28 days, 16 hour fast; for glucose AUC (0-120 min): OGTT day 28, glucose 2.0 g/kg PO
Experimental: The DIO mice were prepared by feeding male C57BL/6 mice a high fat diet (HFD, Research Diets D12492) from 6-14 weeks of age. DIO mice were housed individually and maintained on the HFD through the duration of study. A twelve-hour light cycle was maintained with room temperature maintained at 22-25° C. All of the mice were acclimated to the facility for 5 days prior to starting the study.
Following 5 days of facility acclimation, DIO mice were randomized into 8 groups of 10 based on body weight and blood glucose for assignment to treatment, as shown in Table 9:
All treatments were administered admixed in HFD (Research Diets, New Brunswick N.J.) and were provided ad libitum for 30 days. Drinking water for group 7 was supplemented with 1, 3 Butanediol at 3% concentration.
Body weight was recorded at baseline and twice weekly thereafter. Feed and water intakes were recorded each Monday, Wednesday, and Friday.
Blood samples (<3 μL) were obtained one hour post dose by tail clip at baseline and weekly thereafter for measurement of fed blood glucose by StatStrip. Additional anti-coagulated blood samples (100 μl, EDTA di-potassium salt) were obtained by tail clip one hour post-dose at baseline, day 14 and day 30. Anti-coagulated samples were quick frozen and stored on dry ice.
Animals were subjected to a 16 hour fast for performance of an oral glucose tolerance test (OGTT) on day 28. Blood samples were obtained via tail clip just prior to (8 am) and 15, 30, 60, 90, and 120 minutes post-glucose load (2.0 g/kg, PO) for assay of whole blood glucose (StatStrip). Feed was returned following last sample.
Animals were terminated on day 30-31 using CO2 inhalation and induction of pneumothorax. Terminal blood samples were obtained by cardiac puncture. Whole blood was processed to serum and analyzed for serum cholesterol, triglycerides, high density lipoprotein (HDL), low density lipoprotein (LDL) and non-esterified fatty acids (NEFA) using AU480 clinical analyzer.
Organ weights (liver, spleen, subcutaneous fat, inguinal fat, abdominal fat, and epididymal fat) were recorded. Sections of each fat were frozen or fixed in 4% paraformaldehyde/PBS, pH 6.9; Fat samples were placed on dry ice. Fixed liver samples (4% paraformaldehyde) were sent to Premier Laboratories for H&E staining and scoring for steatosis, inflammation and fibrosis. Spleen samples were prepared in ice cold 5% bovine serum albumin (BSA) in PBS or 4% paraformaldehyde. Sections of brain, heart, lung, and small and large intestine were fixed in 10% formalin.
All data are represented as group mean±SEM. Data were analyzed using JMP (SAS software). All normalizations were calculated using terminal body weight.
Baseline differences among groups were identified using Tukey-Kramer Hsd<0.05. Treatment effects compared to control were determined using Oneway ANOVA (*, p<0.05) followed by Dunnett's test where appropriate.

[3] = Assay 3. Fecal Incubation Stability; type: in vitro ADME; conditions: 1 or 10 μM, human fecal slurry, anaerobic

Compound | Assay 1 (SGF) (% Remaining @ 1 hours) [1] | Assay 2 (SIF) (% @ Remaining 4 hours) [2] | % Weight change (C57BL/6 DIO mice; ad libitum in HFD) | OGTT (C57BL/6 DIO mice; ad libitum in HFD, ctrl HFD) | % HbA1c (C57BL/6 DIO mice; ad libitum in HFD, ctrl HFD) | % Difference compared to ctrl (C57BL/6 DIO mice; ad libitum in HFD) | further results
CCCC(=O)O [Butyric Acid] | – | – | – | – | – | – | Cell viability % DMSO (naïve CD4+ T cells): − (<90%: −); activity at 3000 µM (naïve CD4+ T cells; Homo sapiens, CD4+ T, 144 h, read-out: Treg induction % DMSO): < 90%
CCCC(=O)O [Butyric acid] | – | – | – | – | – | – | activity at 3000 µM (Mouse 3T3-L1 cells): 50 to 70%; activity at 3000 µM (Mouse myocyte): < 50%
CCCC(=O)OCC[C@@H](C)OC(=O)Oc1ccc(/C=C/c2cc(OC(=O)O[C@H](C)CCOC(=O)CCC)cc(OC(=O)O[C@H](C)CCOC(=O)CCC)c2)cc1 [Compound 78, (3R,3′R)-((((5-((E)-4-(((((R)-4-(butyryloxy)butan-2-yl)oxy)carbonyl)oxy)styryl)-1,3-phenylene)bis(oxy))bis(carbonyl))bis(oxy))bis(butane-3,1-diyl) dibutyrate] | C (C: >75% of the tested compound remaining) | A (A: <25% of the tested compound remaining) | 21% | 29944 | 6.14% | −2% | –
CCCC(=O)Oc1cc(OC(=O)CCC)c2c(=O)c(OC(=O)CCC)c(-c3ccc(OC(=O)CCC)c(OC(=O)CCC)c3)oc2c1 [Compound 15, [2-butanoyloxy-4-[3,5,7-tri(butanoyloxy)-4-oxo-chromen-2-yl]phenyl] butanoate] | C (C: >75% of the tested compound remaining) | B (B: 25-75% of the tested compound remaining) | 23% | 32722 | 6.50% | 0% | –
O=C(CCCc1ccccc1)Oc1cc(OC(=O)CCCc2ccccc2)c2c(c1)O[C@H](c1cc(OC(=O)CCCc3ccccc3)c(OC(=O)CCCc3ccccc3)c(OC(=O)CCCc3ccccc3)c1)[C@H](OC(=O)c1cc(OC(=O)CCCc3ccccc3)c(OC(=O)CCCc3ccccc3)c(OC(=O)CCCc3ccccc3)c1)C2 [Compound 5, [(2R,3R)-5,7-bis(4-phenylbutanoyloxy)-2-[3,4,5-tris(4-phenylbutanoyloxy)phenyl]chroman-3-yl] 3,4,5-tris(4-phenylbutanoyloxy)benzoate] | – | – | – | – | – | – | Fasting blood glucose levels (time 0 from OGTT) (Male DIO mice; 0.6% in HFD): 107.3 ± 5.3 mg/dL; glucose AUC (0-120 min) (Male DIO mice; 0.6% in HFD): 29628.0 ± 1791.7 mg/dL/min; Fasting blood glucose levels (time 0 from OGTT) (Male DIO mice; 2% in HFD): 104.7 ± 4.3 mg/dL; glucose AUC (0-120 min) (Male DIO mice; 2% in HFD): 27648.8 ± 866.3 mg/dL/min; Fasting blood glucose levels (time 0 from OGTT) (Male DIO mice; 6% in HFD): 95.1 ± 4.4 mg/dL; glucose AUC (0-120 min) (Male DIO mice; 6% in HFD): 26049.0 ± 455.4 mg/dL/min
CCCC(=O)O[C@H]1OC[C@H](OC(=O)CCC)[C@H](OC(=O)CCC)[C@H]1OC(=O)CCC [Compound 184, (2R,3R,4S,5S)-3,4,5-tris(butanoyloxy)oxan-2-yl Butanoate] | – | – | 11% | 27257 | 5.96% | −12% | –
CCCC(=O)OC[C@H]1O[C@H](OC(=O)CCc2c[nH]c3ccccc23)[C@H](OC(=O)CCC)[C@@H](OC(=O)CCC)[C@@H]1OC(=O)CCC [Compound 122, [(2R,3R,4S,5R,6R)-3,4,5-tris(butanoyloxy)-6-{[3-(1H-indol-3-yl)propanoyl]oxy}oxan-2-yl]methyl Butanoate] | C (C: >75% of the tested compound remaining) | B (B: 25-75% of the tested compound remaining) | – | – | – | – | Assay 3 (% Remaining at 24 h) [3]: A (A: <25% of the tested compound remaining)
CCC(=O)OC[C@H]1O[C@H](OC)[C@H](OC(=O)CC)[C@@H](OC(=O)CC)[C@@H]1OC(=O)CC [Compound 88, [(2R,3R,4S,5R,6S)-6-methoxy-3,4,5-tris(propanoyloxy)oxan-2-yl]methyl Propanoate] | C (C: >75% of the tested compound remaining) | A (A: <25% of the tested compound remaining) | – | – | – | – | Assay 3 (% Remaining at 24 h) [3]: A (A: <25% of the tested compound remaining)
Semaglutide [reference compound] | – | – | – | – | – | – | % HbA1c (C57BL/6 DIO mice; 123.4 μg/kg SC 3 times weekly for 12 weeks, ctrl Saline): 7.90%; OGTT (C57BL/6 DIO mice; 123.4 μg/kg SC 3 times weekly, ctrl Saline): 18214

— patent US10953027B2, “Active agents and methods of their use for the treatment of metabolic disorders and nonalcoholic fatty liver disease” (Flagship Pioneering Innovations V, Inc., priority 2018, dated 2021)
